Assay results published in ChEMBL document CHEMBL1201862, “PubChem BioAssay data set” (2004).
The source made the active and inactive calls.

Legend:
Escherichia coli = assay: microbe, parasite or virus in culture
[1] = decrease of insulin promoter-GFP reporter – imaging, high-content screening, mouse beta cells (AID 1628); type: functional; details: MIN6
[2] = MIN6 cell viability loss – mouse insulinoma, cytotoxicity control, dose response (AID 2122); type: functional;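 note: confirmatory high-throughput counterscreen run to flag cytotoxic compounds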
[3] = Trypanosoma cruzi growth suppression in host cells – NIH3T3 host cells, beta-gal luminescence, confirmation (AID 2044); type: functional, cell-based;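 note: intracellular parasites grown in NIH/3T3 mouse fibroblasts as host cells; luminescent beta-galactosidase reporter signal from transgenic T. cruzi replicating inside host cells; inhibitors lower the luminescence signal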
[4] = NIH3T3 cell viability loss – ATP luminescence, mouse fibroblasts, counter-screen, dose response (AID 2010); type: functional, cell-based;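 note: cells exposed to compound for about 90 hours before reading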
[5] = Luminescence Cell-Based Dose Retest to Confirm Inhibitors of Cancer Stem Cells. [Related pubchem assays (depositor defined):AID2717, AID2721]; type: functional; details: Homo sapiens
[6] = viability loss of HMLE_sh_eGFP cells – cell-based, luminescence, counter-screen for HMLE_sh_ECad selective toxicity project, dose response (AID 463074); type: functional, Homo sapiens;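 note: HMLE human mammary epithelial cells expressing control shRNA against eGFP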
[7] = target: T1, Calpain-2 catalytic subunit (Sus scrofa, UniProt P43367); assay: m-calpain protease blockers, concentration series – biochemical, fluorogenic peptide substrate, dose response (AID 1420); type: functional
T1 sequence (P43367 whole entry): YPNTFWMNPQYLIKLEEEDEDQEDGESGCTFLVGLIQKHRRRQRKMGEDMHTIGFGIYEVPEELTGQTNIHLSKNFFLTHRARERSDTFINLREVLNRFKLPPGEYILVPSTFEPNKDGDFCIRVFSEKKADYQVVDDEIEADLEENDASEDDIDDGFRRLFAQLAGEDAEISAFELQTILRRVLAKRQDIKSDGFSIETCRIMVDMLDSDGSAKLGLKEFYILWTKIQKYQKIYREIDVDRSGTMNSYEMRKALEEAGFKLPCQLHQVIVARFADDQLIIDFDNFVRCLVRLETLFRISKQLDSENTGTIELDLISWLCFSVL

[8] = target: Luciferin 4-monooxygenase (Photuris pensylvanica, UniProt Q27757); assay: inhibition of Cell Titer Glo luciferase signal – biochemical, luminescence, cherry-picks, counter-screen for HSF-1 reporter inhibitor project, dose response (AID 588847)
[9] = target: Dual specificity tyrosine-phosphorylation-regulated kinase 1A (Rattus norvegicus, UniProt Q63470); type: biochemical, Homo sapiens
[10] = NIH-3T3 fibroblast cytotoxicity, dose response, cytotoxicity control, cell-based, fluorescence, Alamar Blue, secondary assay (AID 2327); type: functional;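 note: NIH-3T3 mouse fibroblasts cultured with fluconazole at 8 µg/mL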
[11] = fluconazole-exposed Candida albicans growth modulators – fluorescence, retest, confirmation (AID 2467); type: functional, cell-based
[12] = target: G-protein coupled receptor 55 (Homo sapiens, UniProt Q9Y2T6); assay: inhibition of LPI-stimulated GPR55 beta-arrestin translocation – imaging, U2OS, beta-arrestin-GFP, LPI agonist, primary screen (AID 2013); type: functional;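 note: antagonist potency measured as reduced agonist-driven arrestin aggregation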
[13] = target: Serine/threonine-protein phosphatase (Candida dubliniensis (strain CD36 / CBS 7987 / NCPF 3949 / NRRLY-17841) (Yeast), UniProt B9W6M3); assay: blockers of CaCl2-induced CDRE-lacZ signaling – S. cerevisiae, luminescence, secondary, dose response (AID 2388); type: functional, cell-based;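 note: yeast reporter cells carrying a calcineurin-responsive lacZ construct stimulated with calcium chloride; luminescent beta-galactosidase reporter signal in whole cells rather than isolated phosphatase activity; potency for inhibition where a drop in reporter signal means calcineurin blockade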
[14] = target: T2, Ubiquitin-conjugating enzyme E2 N (Homo sapiens, UniProt P61088); type: functional;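 note: Dose-response confirmation in a TR-FRET assay detecting UBC13-driven polyubiquitin chain formation, inhibition measured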
T2 sequence (P61088 whole entry): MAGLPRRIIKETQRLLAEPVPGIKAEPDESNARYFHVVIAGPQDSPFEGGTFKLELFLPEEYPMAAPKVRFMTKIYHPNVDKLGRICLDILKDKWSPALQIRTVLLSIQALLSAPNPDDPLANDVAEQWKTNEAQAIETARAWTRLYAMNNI

[15] = target: ATP-dependent molecular chaperone HSP82 (Candida albicans (strain WO-1) (Yeast), UniProt C4YTQ8); assay: steroid-induced GRE reporter decrease in yeast – S. cerevisiae, luminescence, Hsp90 inhibitor project, dose response (AID 2400); type: functional, cell-based;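 note: beta-galactosidase luminescence from glucocorticoid response element reporter as proxy for Hsp90 function; inhibitor potency where signal loss means Hsp90 inhibition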
[16] = reduction of Shn3 3'UTR-driven luciferase in osteoblasts – cell-based, Clone20 osteoblasts, firefly luciferase, cherry-picked, dose response (AID 624132); type: functional;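 note: firefly luciferase luminescence from reporter carrying the Shn3 3'UTR in osteoblasts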
[17] = loss of viability in HepG2 cells – cell-based, CellTiter-Glo, cherry-picked, cytotoxicity control for Shn3 inhibitor project, dose response (AID 624134); type: functional
[18] = non-specific 3'UTR reporter inhibition in Clone20-Shn3RL – cell-based, Renilla luciferase, cherry-picked, counter-screen for Shn3 inhibitor project, dose response (AID 624133); type: functional
[19] = target: T3, Tyrosine-protein phosphatase non-receptor type 7 (Homo sapiens, UniProt P35236); type: functional
T3 sequence (P35236 whole entry): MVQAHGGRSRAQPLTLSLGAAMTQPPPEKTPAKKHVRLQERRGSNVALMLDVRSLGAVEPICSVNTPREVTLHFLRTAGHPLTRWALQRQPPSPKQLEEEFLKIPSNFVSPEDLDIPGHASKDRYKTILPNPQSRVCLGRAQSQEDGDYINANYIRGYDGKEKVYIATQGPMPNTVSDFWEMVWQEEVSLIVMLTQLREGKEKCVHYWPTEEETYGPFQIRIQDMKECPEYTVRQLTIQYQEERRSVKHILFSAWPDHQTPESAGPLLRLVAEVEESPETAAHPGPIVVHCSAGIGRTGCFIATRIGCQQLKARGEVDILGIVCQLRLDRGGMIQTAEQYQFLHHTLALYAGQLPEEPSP

[20] = target: Glyceraldehyde-3-phosphate dehydrogenase (Homo sapiens, UniProt P04406)
[21] = target: T4, Dual specificity protein phosphatase 6 (Rattus norvegicus, UniProt Q64346)
[22] = target: T4, Dual specificity protein phosphatase 6; type: functional
HEK293 [23] = assay: cells; details: Homo sapiens
HEK293 [24] = assay: cells; details: Homo sapiens; remark: listed apart in the source
[25] = CCR5-tropic HIV-1 fusion blockers – cell-based, CCR5-tropic Env, dose response (AID 2279); type: functional
[26] = target: T5, Apoptotic protease-activating factor 1 (Homo sapiens, UniProt O14727); assay: activation of Apaf-1 mediated apoptosis – fluorescent, uHTS hits, dose response (AID 588554); type: functional
T5 sequence (O14727 whole entry): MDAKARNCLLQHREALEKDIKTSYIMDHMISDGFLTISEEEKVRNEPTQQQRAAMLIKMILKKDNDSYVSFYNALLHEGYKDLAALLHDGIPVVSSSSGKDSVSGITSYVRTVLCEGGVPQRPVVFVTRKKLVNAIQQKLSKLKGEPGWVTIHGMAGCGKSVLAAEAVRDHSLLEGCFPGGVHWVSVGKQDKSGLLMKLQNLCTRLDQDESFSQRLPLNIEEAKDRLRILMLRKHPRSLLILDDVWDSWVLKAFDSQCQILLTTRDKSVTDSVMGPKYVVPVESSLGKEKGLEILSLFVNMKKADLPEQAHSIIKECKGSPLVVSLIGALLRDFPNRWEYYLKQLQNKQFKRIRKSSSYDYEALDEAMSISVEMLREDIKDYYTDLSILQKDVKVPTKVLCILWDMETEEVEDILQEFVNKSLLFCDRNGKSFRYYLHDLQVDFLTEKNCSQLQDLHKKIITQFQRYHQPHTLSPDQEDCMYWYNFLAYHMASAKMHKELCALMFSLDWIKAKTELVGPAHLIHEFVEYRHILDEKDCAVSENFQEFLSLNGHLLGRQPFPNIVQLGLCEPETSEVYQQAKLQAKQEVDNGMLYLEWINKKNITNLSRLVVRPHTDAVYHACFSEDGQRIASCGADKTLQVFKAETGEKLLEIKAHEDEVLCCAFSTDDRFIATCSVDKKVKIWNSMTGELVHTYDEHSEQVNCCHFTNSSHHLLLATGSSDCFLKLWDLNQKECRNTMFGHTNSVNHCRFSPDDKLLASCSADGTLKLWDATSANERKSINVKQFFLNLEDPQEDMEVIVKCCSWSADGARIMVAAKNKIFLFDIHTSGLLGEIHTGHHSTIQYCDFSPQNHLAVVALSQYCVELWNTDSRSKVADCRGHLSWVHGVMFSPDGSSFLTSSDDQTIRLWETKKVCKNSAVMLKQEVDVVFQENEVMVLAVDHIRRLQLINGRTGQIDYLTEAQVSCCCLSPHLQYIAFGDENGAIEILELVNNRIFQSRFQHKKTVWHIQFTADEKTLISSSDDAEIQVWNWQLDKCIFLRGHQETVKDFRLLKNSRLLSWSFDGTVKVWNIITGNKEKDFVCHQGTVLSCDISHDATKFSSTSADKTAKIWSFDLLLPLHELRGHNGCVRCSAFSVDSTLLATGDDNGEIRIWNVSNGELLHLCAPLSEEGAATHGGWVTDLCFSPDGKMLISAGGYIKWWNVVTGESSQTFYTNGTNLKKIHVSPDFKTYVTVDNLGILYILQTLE

[27] = THP-1 cell cytotoxicity, dose response, cytotoxicity control for non-replicating M. tuberculosis project (AID 489025); type: functional
[28] = HepG2 cell cytotoxicity, dose response, cytotoxicity control for non-replicating M. tuberculosis project (AID 489018); type: functional; details: Mycobacterium tuberculosis
[29] = NIH/3T3 cell viability loss – mouse embryonic fibroblasts, dry powder, set 2, cytotoxicity control, dose response (AID 493247); type: functional, cell-based; details: Fibroblast
Trypanosoma cruzi = assay: anti-trypanosomal activity in host cells – cell-based, plate reader, dry powder, set 3, dose response (AID 493197); type: functional
[30] = Vero E6 cell cytotoxicity, dose response, cytotoxicity control for non-replicating M. tuberculosis project, secondary assay (AID 492998); type: functional, VeroE6; details: Vero C1008
[31] = target: T6, Microphthalmia-associated transcription factor (Homo sapiens, UniProt O75030); assay: reducers of TRPM1 reporter luminescence, concentration series – cell-based, SK-MEL-5, cherry-picked, set 3, MITF inhibitor project, dose response (AID 493073); type: functional;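 note: SK-MEL-5 melanoma cells with luciferase driven by the MITF target TRPM1 promoter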
T6 sequence (O75030 whole entry): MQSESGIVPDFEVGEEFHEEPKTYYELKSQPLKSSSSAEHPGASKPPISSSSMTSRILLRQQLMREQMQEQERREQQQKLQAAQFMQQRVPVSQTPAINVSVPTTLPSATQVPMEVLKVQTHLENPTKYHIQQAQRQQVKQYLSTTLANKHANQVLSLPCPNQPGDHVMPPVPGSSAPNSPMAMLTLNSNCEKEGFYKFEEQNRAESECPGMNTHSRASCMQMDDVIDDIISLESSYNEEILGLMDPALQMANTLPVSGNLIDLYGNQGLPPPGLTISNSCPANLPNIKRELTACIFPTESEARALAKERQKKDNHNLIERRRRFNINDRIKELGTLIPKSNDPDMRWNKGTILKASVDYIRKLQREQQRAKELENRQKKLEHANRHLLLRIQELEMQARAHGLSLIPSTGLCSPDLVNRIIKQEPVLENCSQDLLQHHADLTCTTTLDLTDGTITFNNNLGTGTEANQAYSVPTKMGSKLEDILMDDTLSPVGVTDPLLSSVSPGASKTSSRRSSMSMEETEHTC

cells [32] = type: functional
[33] = T. cruzi infection blockers in NIH3T3 cells – beta-gal luminescence, NIH3T3 host cells, confirmation (AID 2630); type: functional, cell-based; details: Mus musculus
A-375 = assay: MITF: Counter assay: A375 proliferation Measured in Cell-Based System Using Plate Reader - 2084-03_Inhibitor_Dose_DryPowder_Activity. [Related pubchem assays (depositor defined):AID488944]; type: functional; details: Homo sapiens
cells [34] = assay: cells
ORF 73 = ORF 73 (Human herpesvirus 8, UniProt O40947); assay: KSHV LANA DNA-binding disruption – biochemical, fluorescence polarization, cherry-picked samples, dose response (AID 504725); parameters: species or system Human gammaherpesvirus 8;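 note: fluorescence polarization of a labeled DNA duplex reporting LANA DNA binding; potency is for inhibitors that block LANA binding to the DNA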
Keap1/Nrf2 = Keap1/Nrf2 (Homo sapiens, UniProt Q14145); assay: disruptors of Keap1 binding to Nrf2 peptide – biochemical, fluorescence polarization, cherry-picked samples, dose response (AID 588683)
Keap1/Nrf2, sequence (Q16236 whole entry): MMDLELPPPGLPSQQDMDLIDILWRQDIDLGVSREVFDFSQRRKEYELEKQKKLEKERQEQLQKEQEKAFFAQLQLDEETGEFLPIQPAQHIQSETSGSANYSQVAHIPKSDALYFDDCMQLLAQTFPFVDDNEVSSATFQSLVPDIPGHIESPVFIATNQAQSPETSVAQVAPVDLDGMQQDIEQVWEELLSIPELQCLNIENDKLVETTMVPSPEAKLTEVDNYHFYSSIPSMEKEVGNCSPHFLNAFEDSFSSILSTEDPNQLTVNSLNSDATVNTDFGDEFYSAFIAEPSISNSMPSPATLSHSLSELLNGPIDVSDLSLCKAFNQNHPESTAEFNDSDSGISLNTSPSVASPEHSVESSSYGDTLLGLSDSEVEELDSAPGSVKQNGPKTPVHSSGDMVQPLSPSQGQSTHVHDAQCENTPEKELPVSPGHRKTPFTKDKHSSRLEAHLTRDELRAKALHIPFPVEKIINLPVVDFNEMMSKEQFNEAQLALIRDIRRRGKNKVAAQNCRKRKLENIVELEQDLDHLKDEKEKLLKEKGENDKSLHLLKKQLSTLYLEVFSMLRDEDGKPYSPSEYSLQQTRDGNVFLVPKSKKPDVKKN
Keap1/Nrf2, sequence (Q14145 whole entry): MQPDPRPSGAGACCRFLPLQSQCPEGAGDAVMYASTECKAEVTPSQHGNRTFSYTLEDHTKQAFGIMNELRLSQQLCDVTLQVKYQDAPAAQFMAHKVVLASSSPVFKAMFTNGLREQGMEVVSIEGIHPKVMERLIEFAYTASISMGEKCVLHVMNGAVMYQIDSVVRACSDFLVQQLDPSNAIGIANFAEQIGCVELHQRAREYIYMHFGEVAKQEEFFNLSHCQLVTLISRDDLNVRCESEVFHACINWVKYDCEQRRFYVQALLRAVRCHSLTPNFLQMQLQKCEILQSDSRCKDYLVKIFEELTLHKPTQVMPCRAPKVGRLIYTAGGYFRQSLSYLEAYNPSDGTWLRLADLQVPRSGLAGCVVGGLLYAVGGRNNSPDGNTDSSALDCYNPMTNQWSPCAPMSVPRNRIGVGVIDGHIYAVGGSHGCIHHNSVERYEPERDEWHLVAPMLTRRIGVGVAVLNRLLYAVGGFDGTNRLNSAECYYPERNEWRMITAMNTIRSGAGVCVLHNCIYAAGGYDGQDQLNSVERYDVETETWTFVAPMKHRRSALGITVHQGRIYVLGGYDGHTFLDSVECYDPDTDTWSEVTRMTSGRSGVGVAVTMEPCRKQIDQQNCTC

T4 sequence (Q64346 whole entry): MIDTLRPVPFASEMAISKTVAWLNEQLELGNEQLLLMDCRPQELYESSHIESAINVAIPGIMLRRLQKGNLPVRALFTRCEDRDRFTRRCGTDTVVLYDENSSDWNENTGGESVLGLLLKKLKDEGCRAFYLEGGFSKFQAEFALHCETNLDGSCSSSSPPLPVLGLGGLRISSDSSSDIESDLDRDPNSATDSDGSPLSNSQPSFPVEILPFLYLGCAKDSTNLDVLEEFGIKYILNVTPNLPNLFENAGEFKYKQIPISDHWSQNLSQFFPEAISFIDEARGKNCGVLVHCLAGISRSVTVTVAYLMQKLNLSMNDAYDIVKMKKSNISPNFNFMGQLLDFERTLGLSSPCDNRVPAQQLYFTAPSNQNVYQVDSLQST
ATP-dependent molecular chaperone HSP82, sequence (C4YTQ8 whole entry): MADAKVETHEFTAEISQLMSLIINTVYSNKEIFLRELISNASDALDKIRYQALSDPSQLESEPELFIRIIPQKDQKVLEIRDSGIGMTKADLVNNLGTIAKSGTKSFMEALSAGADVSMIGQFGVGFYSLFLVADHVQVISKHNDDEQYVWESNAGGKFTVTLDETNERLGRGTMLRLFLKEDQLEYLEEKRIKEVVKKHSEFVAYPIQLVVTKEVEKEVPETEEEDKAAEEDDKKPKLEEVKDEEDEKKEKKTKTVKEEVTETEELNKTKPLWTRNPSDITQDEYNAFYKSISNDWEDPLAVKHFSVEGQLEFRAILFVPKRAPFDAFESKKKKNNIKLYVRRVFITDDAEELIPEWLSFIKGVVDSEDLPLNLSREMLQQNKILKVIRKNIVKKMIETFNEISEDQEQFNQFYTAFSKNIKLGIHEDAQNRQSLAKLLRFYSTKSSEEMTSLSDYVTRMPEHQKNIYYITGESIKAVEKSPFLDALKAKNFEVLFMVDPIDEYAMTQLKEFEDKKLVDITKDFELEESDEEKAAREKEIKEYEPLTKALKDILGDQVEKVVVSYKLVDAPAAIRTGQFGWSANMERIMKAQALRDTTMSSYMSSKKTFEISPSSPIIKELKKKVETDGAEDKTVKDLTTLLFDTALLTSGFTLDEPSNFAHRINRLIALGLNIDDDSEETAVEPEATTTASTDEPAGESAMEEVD
Serine/threonine-protein phosphatase, sequence (B9W6M3 whole entry): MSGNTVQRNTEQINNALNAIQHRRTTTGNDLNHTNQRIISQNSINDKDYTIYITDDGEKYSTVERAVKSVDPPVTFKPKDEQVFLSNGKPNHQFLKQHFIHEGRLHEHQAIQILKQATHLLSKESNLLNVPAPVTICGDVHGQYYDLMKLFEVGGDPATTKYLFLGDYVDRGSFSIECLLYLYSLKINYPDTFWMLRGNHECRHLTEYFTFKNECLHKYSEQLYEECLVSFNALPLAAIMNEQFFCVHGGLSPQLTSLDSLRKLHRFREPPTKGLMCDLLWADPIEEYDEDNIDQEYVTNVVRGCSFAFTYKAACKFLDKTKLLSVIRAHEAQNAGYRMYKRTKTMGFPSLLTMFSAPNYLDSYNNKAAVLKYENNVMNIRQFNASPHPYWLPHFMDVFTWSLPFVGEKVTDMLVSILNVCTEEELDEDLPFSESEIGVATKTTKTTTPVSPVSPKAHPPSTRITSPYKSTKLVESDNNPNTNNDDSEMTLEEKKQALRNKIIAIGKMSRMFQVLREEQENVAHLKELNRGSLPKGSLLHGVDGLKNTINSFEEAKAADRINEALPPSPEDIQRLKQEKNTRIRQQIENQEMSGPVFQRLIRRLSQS
G-protein coupled receptor 55, sequence (Q9Y2T6 whole entry): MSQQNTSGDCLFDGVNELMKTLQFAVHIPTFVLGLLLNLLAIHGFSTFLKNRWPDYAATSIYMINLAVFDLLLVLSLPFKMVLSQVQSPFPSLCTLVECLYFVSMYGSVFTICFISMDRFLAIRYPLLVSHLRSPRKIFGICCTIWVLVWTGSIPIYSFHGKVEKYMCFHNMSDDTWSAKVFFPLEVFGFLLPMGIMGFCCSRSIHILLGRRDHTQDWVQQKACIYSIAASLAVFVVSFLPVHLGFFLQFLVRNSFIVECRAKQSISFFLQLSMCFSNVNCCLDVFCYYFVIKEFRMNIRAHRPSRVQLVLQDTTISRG
Glyceraldehyde-3-phosphate dehydrogenase, sequence (P04406 whole entry): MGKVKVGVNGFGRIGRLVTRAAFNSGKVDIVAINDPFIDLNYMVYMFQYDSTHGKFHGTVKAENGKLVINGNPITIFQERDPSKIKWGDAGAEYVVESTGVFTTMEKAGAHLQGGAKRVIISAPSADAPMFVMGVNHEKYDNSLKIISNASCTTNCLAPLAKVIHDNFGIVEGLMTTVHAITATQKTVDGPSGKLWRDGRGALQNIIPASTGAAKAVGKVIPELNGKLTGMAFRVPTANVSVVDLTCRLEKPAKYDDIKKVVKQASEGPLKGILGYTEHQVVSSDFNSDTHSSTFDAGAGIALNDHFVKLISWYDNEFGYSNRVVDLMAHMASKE
ORF 73, sequence (O40947 whole entry): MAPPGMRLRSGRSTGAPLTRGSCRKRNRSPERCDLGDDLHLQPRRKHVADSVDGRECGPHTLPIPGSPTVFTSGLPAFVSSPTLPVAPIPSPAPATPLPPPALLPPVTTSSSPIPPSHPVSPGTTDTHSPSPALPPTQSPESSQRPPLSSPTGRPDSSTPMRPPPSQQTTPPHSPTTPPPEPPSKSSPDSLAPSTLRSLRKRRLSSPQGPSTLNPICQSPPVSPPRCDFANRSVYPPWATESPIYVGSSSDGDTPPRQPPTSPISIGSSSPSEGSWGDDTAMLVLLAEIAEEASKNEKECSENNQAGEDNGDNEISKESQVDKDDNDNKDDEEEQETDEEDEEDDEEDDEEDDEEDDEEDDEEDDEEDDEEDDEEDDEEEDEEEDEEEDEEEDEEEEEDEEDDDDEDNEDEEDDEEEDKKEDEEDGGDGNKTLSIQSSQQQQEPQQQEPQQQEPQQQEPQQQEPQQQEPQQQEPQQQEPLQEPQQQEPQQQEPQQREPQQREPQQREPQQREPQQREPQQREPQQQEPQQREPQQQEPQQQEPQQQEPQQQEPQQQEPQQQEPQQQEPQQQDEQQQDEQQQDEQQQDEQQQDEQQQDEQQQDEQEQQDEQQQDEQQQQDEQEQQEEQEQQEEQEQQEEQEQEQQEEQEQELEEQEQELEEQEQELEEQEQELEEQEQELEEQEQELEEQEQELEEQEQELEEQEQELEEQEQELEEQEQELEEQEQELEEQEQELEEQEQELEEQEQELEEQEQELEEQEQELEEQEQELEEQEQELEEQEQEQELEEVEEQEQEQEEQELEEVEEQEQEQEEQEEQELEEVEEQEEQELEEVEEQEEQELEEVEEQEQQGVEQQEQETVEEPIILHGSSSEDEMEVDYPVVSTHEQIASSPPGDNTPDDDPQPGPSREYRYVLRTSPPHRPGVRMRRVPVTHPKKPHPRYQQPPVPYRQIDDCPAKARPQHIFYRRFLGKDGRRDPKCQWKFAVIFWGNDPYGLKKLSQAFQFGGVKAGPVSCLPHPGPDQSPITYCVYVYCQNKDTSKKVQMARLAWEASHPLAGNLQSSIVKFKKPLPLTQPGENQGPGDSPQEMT

## CCOc1ccc(S(=O)(=O)Nc2cc(Cl)ccc2O)cc1
Escherichia coli
  AC50: 53.7 µM (active)

## CN1/C(=C\C(=O)COc2ccc3c(c2)OCO3)C(C)(C)c2ccccc21
[1]
  IC50: 1.48 µM (active)
[2]
  IC50: 0.768 µM (active)
[3]
  EC50: 2.75 µM (active)
[4]
  EC50: > 60 µM (not active)
[5]
  AC50: 4.1 µM (active)
[6]
  AC50: 23.4 µM (active)

## Cc1nn(-c2cccc(C(F)(F)F)c2)c(Cl)c1/C=N/Nc1cccc(C(=O)O)c1
[7]
  IC50: 11.4 µM (not active)
[8]
  AC50: > 52 µM (inactive)

## COc1ccc2cc3cc(C(=O)NCCN4CCN(Cc5ccccc5)CC4)oc3nc2c1
[9]
  AC50: 1.51 µM (active)

## Cc1cc(Nc2ccccc2)nc(NCc2ccccc2)n1
[10]
  EC50: > 150 µM (inactive)
[1]
  IC50: 0.927 µM (active)
[2]
  IC50: 0.571 µM (active)
[11]
  EC50: 0.783 µM (active)
[12]
  IC50: 2.05 µM (active)
[13]
  EC50: > 180 µM (inactive)
[14]
  IC50: > 20 µM (inactive)
[15]
  EC50: > 150 µM (inactive)
[16]
  AC50: 1.04 µM (active)
[17]
  AC50: 20.5 µM (active)
[18]
  AC50: 2.54 µM (active)

## CCCCCCCCC#CC#CCCCC(=O)O
[19]
  IC50: 96.2 µM (not active)
[20]
  IC50: > 100 µM (not active)
[21]
  IC50: > 100 µM (inactive)
[22]
  IC50: > 100 µM (inactive)

## O=C(NC12CC3CC(CC(C3)C1)C2)N(Cc1ccccc1)Cc1ccncc1
HEK293 [23]
  EC50: > 59.6 µM (inactive)
HEK293 [24]
  EC50: > 59.6 µM (inactive)

## O=C(N/N=C/c1cc(Cl)cc([N+](=O)[O-])c1O)NC12CC3CC(CC(C3)C1)C2
[25]
  IC50: 40 µM (active)
[5]
  AC50: 5.03 µM (active)
[26]
  EC50: 6.87 µM (active)

## O=C(CNc1cccc([N+](=O)[O-])c1)N/N=C/c1ccc([N+](=O)[O-])o1
[3]
  EC50: < 0.1 µM (active)
[4]
  EC50: > 60 µM (not active)
[27]
  CC50: 14.1 µM (active)
[28]
  CC50: 10.1 µM (active)
[29]
  AC50: 35.6 µM (active)
Trypanosoma cruzi
  AC50: 0.061 µM (active)
[30]
  CC50: 11.6 µM (active)
[31]
  AC50: 8.63 µM (active)
Cells [32]
  IC50: 5.42 µM (active)
[33]
  EC50: 0.0205 µM (active)
A-375
  AC50: 41.8 µM (active)
Cells [34]
  EC50: 0.055 µM (active)

## CCc1ccc[n+](-c2[n-]c(=O)sc2C=NNC(=S)Nc2ccccc2)c1
ORF 73
  AC50: 10.1 µM (active)
Keap1/Nrf2
  AC50: 13.6 µM (active)
